This note sets out measurements from PubChem BioAssay AID1259411 (Chemical Carcinogenesis Research Information System (CCRIS), 2018).

The subject of this data set is rodent carcinogenicity bioassays, tumor incidence. Put plainly: CCRIS carcinogenicity studies. As to conditions: Dose: 0, Dose: 0. The essentials:
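NCI-built, expert-reviewed records of carcinogenicity and related test outcomes (mutagenicity, tumor promotion/inhibition) compiled from published and report sources, historical span 1985-2011, not updated.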

The structures appear in SMILES notation. Calls of active or inactive are those of the source. How the calls were made is not given here.

`O=C1CN(/N=C/c2ccc([N+](=O)[O-])o2)C(=O)N1`: the carcinogen call runs as follows: (Species: MOUSE, Strain/Sex: B6C3F1/FEMALE, Route: ORAL, 1300, 2500 PPM IN FEED FOR 103 WK (STUDY DURATION: 105 WK), 1300, 2500 PPM IN FEED FOR 103 WK (STUDY DURATION: 105 WK), Tumor Site: Type of Lesion: OVARY: TUBULAR ADENOMA, MIXED TUMOR (BENIGN)) “active; positive”; (Species: MOUSE, Strain/Sex: B6C3F1/MALE, Route: ORAL, 1300, 2500 PPM IN FEED FOR 103 WK (STUDY DURATION: 105 WK), 1300, 2500 PPM IN FEED FOR 103 WK (STUDY DURATION: 105 WK)) “inactive; negative”; (Species: MOUSE, Strain/Sex: BDF1/FEMALE, Route: ORAL, 0.075, 0.3% IN DIET BEGINNING AT 9 WK OF AGE AND CONTINUING FOR DURATION OF STUDY (STUDY DURATION: 24 MO), 0.075, 0.3% IN DIET BEGINNING AT 9 WK OF AGE AND CONTINUING FOR DURATION OF STUDY (STUDY DURATION: 24 MO)) “inactive; negative”; (Species: MOUSE, Strain/Sex: BDF1/MALE, Route: ORAL, 0.075, 0.3% IN DIET BEGINNING AT 9 WK OF AGE AND CONTINUING FOR DURATION OF STUDY (STUDY DURATION: 24 MO), 0.075, 0.3% IN DIET BEGINNING AT 9 WK OF AGE AND CONTINUING FOR DURATION OF STUDY (STUDY DURATION: 24 MO)) “inactive; negative”; (Species: MOUSE, Strain/Sex: ICR/MALE, FEMALE, Route: TRANSPLACENTAL, 75 UG/G ADMINISTERED SUBCUTANEOUSLY TO MOTHERS ON DAYS 13, 15 AND 17 OF GESTATION (STUDY DURATION: 33 WK), Tumor Site: Type of Lesion: LUNG: PAPILLARY ADENOMA) “active; positive”; (Species: MOUSE, Strain/Sex: SWISS/FEMALE, Route: ORAL, 0.03% IN DIET FOR 441 D, THEN 0.04% IN DIET FOR DURATION OF STUDY (TOTAL AVERAGE DOSE: 58.76 MG/KG) (STUDY DURATION:, 0.03% IN DIET FOR 441 D, THEN 0.04% IN DIET FOR DURATION OF STUDY (TOTAL AVERAGE DOSE: 58.76 MG/KG) (STUDY DURATION:) “inactive; negative”. The carcinogen call was “inactive; negative” (Species: MOUSE, Strain/Sex: SWISS/FEMALE, Route: ORAL, 0.06% IN DIET FOR 441 D, THEN 0.075% IN DIET FOR DURATION OF STUDY (TOTAL AVERAGE DOSE: 115.59 MG/KG) (STUDY DURATION, 0.06% IN DIET FOR 441 D, THEN 0.075% IN DIET FOR DURATION OF STUDY (TOTAL AVERAGE DOSE: 115.59 MG/KG) (STUDY DURATION); “inactive; negative” (Species: MOUSE, Strain/Sex: SWISS/FEMALE, Route: ORAL, 0.13% IN DIET FOR 441 D, THEN 0.155% IN DIET FOR DURATION OF STUDY (TOTAL AVERAGE DOSE: 224.07 MG/KG) (STUDY DURATION, 0.13% IN DIET FOR 441 D, THEN 0.155% IN DIET FOR DURATION OF STUDY (TOTAL AVERAGE DOSE: 224.07 MG/KG) (STUDY DURATION); “inactive; negative” (Species: MOUSE, Strain/Sex: SWISS/MALE, Route: ORAL, 0.03% IN DIET FOR 441 D, THEN 0.04% IN DIET FOR DURATION OF STUDY (TOTAL AVERAGE DOSE: 43.63 MG/KG) (STUDY DURATION:, 0.03% IN DIET FOR 441 D, THEN 0.04% IN DIET FOR DURATION OF STUDY (TOTAL AVERAGE DOSE: 43.63 MG/KG) (STUDY DURATION:); “inactive; negative” (Species: MOUSE, Strain/Sex: SWISS/MALE, Route: ORAL, 0.06% IN DIET FOR 441 D, THEN 0.075% IN DIET FOR DURATION OF STUDY (TOTAL AVERAGE DOSE: 83.59 MG/KG) (STUDY DURATION:, 0.06% IN DIET FOR 441 D, THEN 0.075% IN DIET FOR DURATION OF STUDY (TOTAL AVERAGE DOSE: 83.59 MG/KG) (STUDY DURATION:); “active; positive” (Species: MOUSE, Strain/Sex: SWISS/MALE, Route: ORAL, 0.13% IN DIET FOR 441 D, THEN 0.155% IN DIET FOR DURATION OF STUDY (TOTAL AVERAGE DOSE: 181.14 MG/KG) (STUDY DURATION, 0.13% IN DIET FOR 441 D, THEN 0.155% IN DIET FOR DURATION OF STUDY (TOTAL AVERAGE DOSE: 181.14 MG/KG) (STUDY DURATION, Tumor Site: Type of Lesion: HEMATOPOIETIC SYSTEM: MALIGNANT LYMPHOMA); “inactive; negative” (Species: RAT, Strain/Sex: F344/FEMALE, Route: ORAL, 600, 1300 PPM IN FEED FOR 103 WK (STUDY DURATION: 105 WK), 600, 1300 PPM IN FEED FOR 103 WK (STUDY DURATION: 105 WK)). In addition, the carcinogen call by setting is: (Species: RAT, Strain/Sex: F344/MALE, Route: ORAL, 0.187% IN DIET FOR 104 WK (STUDY DURATION: 104 WK)) “inactive; negative”; (Species: RAT, Strain/Sex: F344/MALE, Route: ORAL, 1300, 2500 PPM IN FEED FOR 103 WK (STUDY DURATION: 105 WK), 1300, 2500 PPM IN FEED FOR 103 WK (STUDY DURATION: 105 WK), Tumor Site: Type of Lesion: KIDNEY: TUBULAR ADENOMA OR CARCINOMA, SUBCUTANEOUS TISSUE: FIBROMA, FIBROMA OR FIBROSARCOMA) “active; positive”; (Species: RAT, Strain/Sex: SPRAGUE-DAWLEY/FEMALE, Route: ORAL, 0.188% IN DIET FOR 2 YR (STUDY DURATION: 2 YR), Tumor Site: Type of Lesion: MAMMARY GLAND: FIBROADENOMA) “active; positive”; (Species: RAT, Strain/Sex: STRAIN-CD/FEMALE, Route: ORAL, 12, 24, 48 MG/KG BW IN DIET FOR 24 MO (STUDY DURATION: 24 MO), 12, 24, 48 MG/KG BW IN DIET FOR 24 MO (STUDY DURATION: 24 MO)) “inactive; negative”; (Species: RAT, Strain/Sex: STRAIN-CD/MALE, Route: ORAL, 12, 24, 48 MG/KG BW IN DIET FOR 24 MO (STUDY DURATION: 24 MO), 12, 24, 48 MG/KG BW IN DIET FOR 24 MO (STUDY DURATION: 24 MO)) “inactive; negative”.

Consider `CC(CCl)OC(C)CCl` (stereo not drawn), for which the carcinogen call by setting is: (Species: MOUSE, Strain/Sex: B6C3F1/FEMALE, Route: GAVAGE, 100, 200 MG/KG IN CORN OIL 5/WK FOR 103 WK, 100, 200 MG/KG IN CORN OIL 5/WK FOR 103 WK, Tumor Site: Type of Lesion: LUNG: ALVEOLAR/BRONCHIOLAR ADENOMA, CARCINOMA) “active; positive”; (Species: MOUSE, Strain/Sex: B6C3F1/MALE, Route: GAVAGE, 100, 200 MG/KG IN CORN OIL 5/WK FOR 103 WK, 100, 200 MG/KG IN CORN OIL 5/WK FOR 103 WK, Tumor Site: Type of Lesion: LUNG: ALVEOLAR/BRONCHIOLAR ADENOMA, CARCINOMA, LIVER: HEPATOCELLULAR ADENOMA, CARCINOMA) “active; positive”; (Species: RAT, Strain/Sex: F344/FEMALE, Route: GAVAGE, 100, 200 MG/KG IN CORN OIL, 100, 200 MG/KG IN CORN OIL) “inactive; negative”; (Species: RAT, Strain/Sex: F344/MALE, Route: GAVAGE, 100, 200 MG/KG IN CORN OIL, 100, 200 MG/KG IN CORN OIL) “inactive; negative”.

In the case of `CC(=O)O[C@@H]1[C@@H](O)[C@H]2O[C@@H]3C=C(C)C(=O)[C@@H](O)[C@]3(CO)[C@]1(C)[C@]21CO1`, the carcinogen call by setting is: (Species: MOUSE, Strain/Sex: BDF1/FEMALE, Route: GAVAGE, 3.5 MG/KG 1/4 WK FOR 1 YR (STUDY DURATION: 2 YR)) “inactive; negative”; (Species: MOUSE, Strain/Sex: BDF1/FEMALE, Route: GAVAGE, 3.5 MG/KG 1/8 WK FOR 1 YR (STUDY DURATION: 2 YR)) “inactive; negative”.
